The text below walks through data of patent US20200288710A1, “SUBSTITUTED SULPHONAMIDES FOR CONTROLLING ANIMAL PESTS” (BAYER CROPSCIENCE AKTIENGESELLSCHAFT, priority 2016, published 2020).

Holding throughout (type): in vivo
The test system of one assay is Meloidogyne incognita. As to the kind of experiment: Meloidogyne incognita test. Conditions: 336 h, lettuce, after 14 days, read-out: nematicidal efficacy (formation of galls). The procedure, abridged: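 Active compound in acetone, diluted with water, added to sand-filled vessels with M. incognita eggs/larvae and lettuce seeds. After 14 days, efficacy scored by root gall formation: 100% = no galls, 0% = galls equal to untreated control.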

A further assay has as its system Phaedon cochleariae. As to the kind of experiment: Phaedon cochleariae spray test. Conditions: foliar, 168 h, Chinese cabbage leaf discs, larvae, after 7 days, read-out: efficacy. How it is done:
Phaedon cochleariae—Spray Test
To produce a suitable preparation of active compound, 1 part by weight of active compound is dissolved using the specified parts by weight of solvent and made up with water containing an emulsifier concentration of 1000 ppm until the desired concentration is attained. To produce further test concentrations, the formulation is diluted with emulsifier-containing water.
After 7 days, the efficacy in % is determined. 100% means that all the beetle larvae have been killed; 0% means that no beetle larvae have been killed.

The subject of assay [1] is Myzus persicae. As to the kind of experiment: Myzus persicae spray test (Chinese cabbage leaf discs). Conditions: foliar, 120 h, 500 g/ha, after 5-6 days, read-out: efficacy. The procedure, abridged:
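Chinese cabbage leaf discs infested with all stages of green peach aphid were sprayed with compound formulated in acetone/DMF and emulsifier-containing water. Efficacy in % was scored after 5-6 days, with 100% meaning all aphids killed and 0% none killed.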

Assay [2] has as its system Myzus persicae. As to the kind of experiment: Myzus persicae oral test. Conditions: 120 h, 20 ppm, oral uptake, after 5 days, read-out: efficacy. Summed up:
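Compound dissolved in acetone, diluted in water, then mixed 50:150 μl with IPL41 insect medium (33%+15% sugar). Mixed-population green peach aphids feed through a parafilm seal on the solution; mortality scored as % efficacy after 5 days (100% = all killed).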

With `COc1ccc(Cl)c(S(=O)(=O)NC(=O)c2nc(-c3c(F)cccc3F)n(C)c2C)c1` [Example 334], in the assay on Meloidogyne incognita, the pest or weed control at 20 ppm was determined as 90%. The pest or weed control at 500 g/ha in the assay with Phaedon cochleariae came out at 100%.
On to `COc1cc(S(=O)(=O)NC(=O)c2cn(C)c(-c3ncccc3Cl)n2)c(C)cc1Br` [Example 611], for which the pest or weed control at 500 g/ha was 90% in the assay on Myzus persicae [1] and 100% in the assay on Phaedon cochleariae. Moreover, the pest or weed control at 20 ppm in the assay on Myzus persicae [2] is 100%.
Turning to `COc1ccc(Cl)c(S(=O)(=O)NC(=O)c2nc(-c3ccccc3Cl)n(C)c2Br)c1` [Example 222], the pest or weed control at 20 ppm with Meloidogyne incognita is 100%. The pest or weed control at 500 g/ha in the assay with Phaedon cochleariae worked out at 100%.
With `Cc1cccc(Cl)c1S(=O)(=O)NC(=O)c1cc(C)n(-c2ncccc2Br)n1` [Example 304], the pest or weed control at 500 g/ha in the assay with Myzus persicae [1] and in the assay with Phaedon cochleariae was 100% throughout. The pest or weed control at 20 ppm in the assay with Myzus persicae [2] came to 100%.
Regarding `Cc1cccc(C(C)C)c1S(=O)(=O)NC(=O)c1cn(C)c(-c2c(F)cccc2F)n1` [Example 361], the pest or weed control at 20 ppm in the assay with Meloidogyne incognita is 90%. Moreover, the pest or weed control at 500 g/ha in the assay on Phaedon cochleariae is 100%.
With `Cn1cc(C(=O)NS(=O)(=O)c2ccccc2Cl)nc1-c1cccc2ccccc12` [Example 479], the pest or weed control at 20 ppm in the assay on Meloidogyne incognita stood at 90%. The pest or weed control at 500 g/ha in the assay on Phaedon cochleariae was 100%.
With `Cn1cc(C(=O)NS(=O)(=O)c2ccccc2Cl)nc1-c1nccc2ccccc12` [Example 464], the pest or weed control at 500 g/ha in the assay on Myzus persicae [1] and in the assay on Phaedon cochleariae was 100% each time. For the same compound, the pest or weed control at 20 ppm in the assay with Myzus persicae [2] was 90%.
Consider `CCc1ccccc1S(=O)(=O)NC(=O)c1cn(C)c(-c2nccc3ccccc23)n1` [Example 469], for which the pest or weed control at 500 g/ha with Myzus persicae [1] stood at 90%; in the assay on Phaedon cochleariae, 100%. In addition, the pest or weed control at 20 ppm with Myzus persicae [2] was determined as 100%.
Regarding `Cc1ccc(F)cc1S(=O)(=O)NC(=O)c1cc(C)n(-c2ncccc2Br)n1` [Example 303], the values for the pest or weed control at 500 g/ha with Myzus persicae [1] and with Phaedon cochleariae were 100% and 83%, respectively. For the same compound, the pest or weed control at 20 ppm with Myzus persicae [2] is 100%.
In the case of `COc1ccc(Br)c(S(=O)(=O)NC(=O)c2cn(C)c(-c3c(F)cccc3F)n2)c1` [Example 143], the pest or weed control at 500 g/ha with Myzus persicae [1] was 90%; with Phaedon cochleariae it was 100%. Besides, the pest or weed control at 20 ppm in the assay on Myzus persicae [2] is 90%.
In the case of `COc1ccc(OC)c(S(=O)(=O)NC(=O)c2nc(-c3c(F)cccc3F)n(C)c2C)c1` [Example 413], the results for the pest or weed control at 500 g/ha in the assay on Myzus persicae [1] and in the assay with Phaedon cochleariae were 90% and 83%, respectively.
Consider `Cn1cc(C(=O)NS(=O)(=O)c2ccc(Cl)c(Cl)c2)nc1-c1ccccc1Cl` [Example 165], for which the pest or weed control at 500 g/ha in the assay with Myzus persicae [1] stood at 90%; with Phaedon cochleariae it was 100%. In addition, the pest or weed control at 20 ppm in the assay with Myzus persicae [2] was determined as 90%.
Turning to `COc1cc(S(=O)(=O)NC(=O)c2cc(C)n(-c3ncccc3Br)n2)c(C)cc1Br` [Example 300], the pest or weed control at 500 g/ha in the assay on Myzus persicae [1] came out at 90%; with Phaedon cochleariae it was 100%. Besides, in the assay on Myzus persicae [2], the pest or weed control at 20 ppm worked out at 100%.
As for `Cn1cc(C(=O)NS(=O)(=O)c2c(Cl)cccc2Br)nc1-c1c(F)cccc1F` [Example 430], the pest or weed control at 500 g/ha with Myzus persicae [1] and in the assay on Phaedon cochleariae was 100% throughout. The pest or weed control at 20 ppm with Myzus persicae [2] stood at 100%.
Regarding `Cc1c(-c2c(F)cccc2F)nc(C(=O)NS(=O)(=O)c2ccccc2Cl)n1C` [Example 308], the pest or weed control at 20 ppm with Meloidogyne incognita came to 90%. The pest or weed control at 500 g/ha in the assay with Phaedon cochleariae came to 100%.
Regarding `Cc1ccccc1S(=O)(=O)NC(=O)c1cn(C)c(-c2cccc3ccccc23)n1` [Example 216], the pest or weed control at 20 ppm stood at 90% in the assay on Meloidogyne incognita and 100% in the assay on Myzus persicae [2]. For the same compound, in the assay on Phaedon cochleariae, the pest or weed control at 500 g/ha came out at 100%.
Turning to `Cc1ccccc1S(=O)(=O)NC(=O)c1nc(-c2c(F)cccc2F)c(C)n1C` [Example 311], the pest or weed control at 20 ppm with Meloidogyne incognita and with Myzus persicae [2] was 100% in each case. Also, the pest or weed control at 500 g/ha in the assay on Phaedon cochleariae came to 83%.
In the case of `Cn1cc(C(=O)NS(=O)(=O)c2c(Cl)cccc2Br)nc1-c1cccc(Cl)c1Cl` [Example 466], the pest or weed control at 500 g/ha with Myzus persicae [1] was found to be 90%; in the assay on Phaedon cochleariae, 100%. Moreover, the pest or weed control at 20 ppm in the assay on Myzus persicae [2] was 100%.
Consider `COc1ccc(C)c(S(=O)(=O)NC(=O)c2cn(C)c(-c3cccc(Cl)c3Cl)n2)c1` [Example 460], for which the figures for the pest or weed control at 500 g/ha with Myzus persicae [1] and in the assay on Phaedon cochleariae were 100% and 83%, respectively.
As to `CCc1ccc(CC)c(S(=O)(=O)NC(=O)c2cn(C)c(-c3c(F)cccc3F)n2)c1` [Example 340], in the assay on Meloidogyne incognita, the pest or weed control at 20 ppm amounted to 90%. In addition, the pest or weed control at 500 g/ha with Phaedon cochleariae stood at 100%.
For `Cc1c(-c2c(F)cccc2F)nc(C(=O)NS(=O)(=O)c2ccccc2Br)n1C` [Example 309], the pest or weed control at 20 ppm in the assay with Meloidogyne incognita worked out at 100%. For the same compound, the pest or weed control at 500 g/ha in the assay on Phaedon cochleariae was 100%.
`Cc1ccccc1S(=O)(=O)NC(=O)c1cn(C)c(-c2ncccc2Cl)n1` [Example 540]: the pest or weed control at 500 g/ha in the assay on Myzus persicae [1] and in the assay with Phaedon cochleariae was 100% each time. For the same compound, in the assay on Myzus persicae [2], the pest or weed control at 20 ppm was found to be 100%.
With `CCOc1ccc(Cl)c(S(=O)(=O)NC(=O)c2cn(C)c(-c3c(F)cccc3F)n2)c1` [Example 387], the pest or weed control at 500 g/ha in the assay on Myzus persicae [1] and with Phaedon cochleariae was 100% each time. Moreover, the pest or weed control at 20 ppm in the assay on Myzus persicae [2] was determined as 100%.
Regarding `COc1ccc(Cl)c(S(=O)(=O)NC(=O)c2nc(-c3ccccc3Cl)n(C)c2Cl)c1` [Example 577], in the assay on Meloidogyne incognita, the pest or weed control at 20 ppm amounted to 100%. Besides, the pest or weed control at 500 g/ha in the assay on Phaedon cochleariae was found to be 100%.
With `Cc1cc(F)c(F)cc1S(=O)(=O)NC(=O)c1cn(C)c(-c2ccccc2Cl)n1` [Example 290], the pest or weed control at 500 g/ha with Myzus persicae [1] and in the assay on Phaedon cochleariae was 100% each time. The pest or weed control at 20 ppm in the assay with Myzus persicae [2] is 100%.
On to `COc1ccc(Cl)c(S(=O)(=O)NC(=O)c2nc(-c3c(F)cccc3F)c(C)n2C)c1` [Example 307], for which the pest or weed control at 20 ppm with Meloidogyne incognita stood at 100%. In the assay on Phaedon cochleariae, the pest or weed control at 500 g/ha came to 100%.
Consider `Cn1cc(C(=O)NS(=O)(=O)c2c(Cl)cccc2C(F)(F)F)nc1-c1cccc(Cl)c1Cl` [Example 467], for which the pest or weed control at 500 g/ha with Myzus persicae [1] and with Phaedon cochleariae was 100% throughout. Also, in the assay on Myzus persicae [2], the pest or weed control at 20 ppm came out at 100%.
Take `COc1cc(S(=O)(=O)NC(=O)c2cn(C)c(-c3ncccc3F)n2)c(C)cc1Br` [Example 610]: the pest or weed control at 500 g/ha in the assay with Myzus persicae [1] and with Phaedon cochleariae was 100% in each case. Moreover, in the assay on Myzus persicae [2], the pest or weed control at 20 ppm amounted to 100%.
With `Cc1ccccc1S(=O)(=O)NC(=O)c1cn(C)c(-c2nccc3ccccc23)n1` [Example 465], the pest or weed control at 500 g/ha with Myzus persicae [1] and in the assay with Phaedon cochleariae was 100% in each case. Also, in the assay with Myzus persicae [2], the pest or weed control at 20 ppm was 100%.
For the compound `CCc1ccc(Cl)cc1S(=O)(=O)NC(=O)c1cn(C)c(-c2cccc(Cl)c2Cl)n1` [Example 461], the pest or weed control at 500 g/ha in the assay with Myzus persicae [1] and in the assay with Phaedon cochleariae was 100% in each case. In addition, the pest or weed control at 20 ppm with Myzus persicae [2] stood at 100%.
In the case of `CCCc1cccc(C(F)(F)F)c1S(=O)(=O)NC(=O)c1cn(C)c(-c2c(F)cccc2F)n1` [Example 370], the pest or weed control at 500 g/ha in the assay on Myzus persicae [1] is 90%; with Phaedon cochleariae, 100%. For the same compound, the pest or weed control at 20 ppm in the assay on Myzus persicae [2] turned out to be 100%.
